This passage reports IC50 results from patent US20250051327A1, “MALT-1 MODULATORS” (EXSCIENTIA AI LIMITED, priority 2020, published 2025).

Structures can show the parent of a compound that is named as a salt.

Test [1] deals with Recombinant human MALT-1 (amino acids 340-824) (Homo sapiens (Human), UniProt Q9UDY8). Put plainly: MALT-1 inhibition assay (fluorogenic substrate Ac-LRSR-Rh110-DP). In kind it is biochemical. The settings on record: recombinant human MALT-1, substrate Ac-LRSR-Rh110-DP. The method, boiled down:
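MALT-1 at 3 nM final was reacted with 10 μM Ac-LRSR-Rh110-DP, with substrate addition starting the reaction. Incubation ran 60 minutes at 25° C in the dark. Percent inhibition from fluorescence across doses was fitted to a 4-parameter logistic to give IC50.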

Test [2] has as its system IL-2 secretion by human effector memory T cells (TEM). Put plainly: Effector memory T cells IL-2 release assay. In kind it is cell-based. The settings on record: T-cell; human CD4+ effector memory T cells, CD3/CD28 bead stimulation, 24 h; read-out: CD4TC IL2 IC50. The procedure, abridged:
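Human CD4+ effector memory T cells from healthy-donor buffy coats were stimulated with anti-CD3/CD28 Dynabeads and exposed to 10 semi-log compound doses (0.1% DMSO) for 24 h at 37 °C. Supernatant IL-2 was measured by HTRF, and IC50 came from a 4-parameter logistic fit to maximal IL-2. Viability was checked by flow cytometry.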

Chain of Recombinant human MALT-1 (amino acids 340-824) (Q9UDY8 340-824): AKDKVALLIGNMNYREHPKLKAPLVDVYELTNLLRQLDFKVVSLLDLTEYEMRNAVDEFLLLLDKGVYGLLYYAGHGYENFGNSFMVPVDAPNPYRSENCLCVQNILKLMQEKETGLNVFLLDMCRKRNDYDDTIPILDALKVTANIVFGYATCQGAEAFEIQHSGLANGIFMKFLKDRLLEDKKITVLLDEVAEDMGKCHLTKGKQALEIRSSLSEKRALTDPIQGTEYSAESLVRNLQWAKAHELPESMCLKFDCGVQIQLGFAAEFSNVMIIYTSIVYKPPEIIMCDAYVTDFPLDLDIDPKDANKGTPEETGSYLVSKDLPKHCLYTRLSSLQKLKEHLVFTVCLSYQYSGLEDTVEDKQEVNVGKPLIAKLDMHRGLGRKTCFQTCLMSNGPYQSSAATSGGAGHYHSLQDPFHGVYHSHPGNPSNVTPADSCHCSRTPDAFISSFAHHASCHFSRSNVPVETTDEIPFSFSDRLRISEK

Usually IC50 stands for the point on the concentration scale where inhibition reaches its midpoint. With `COc1ccc2ncc(Nc3ccc([C@H](N(C)C(=O)C4CCS(=O)(=O)CC4)C(F)(F)F)cc3)c(C(C)OC)c2n1` (stereo partly drawn) [CPD0019079, N-methyl-1,1-dioxo-N-[(1S)-2,2,2-trifluoro-1-(4-{[6-methoxy-4-(1-methoxyethyl)-1,5-naphthyridin-3-yl]amino}phenyl)ethyl]-1λ^6-thiane-4-carboxamide], the IC50 in test [1] worked out at 147 nM; in test [2], 102 nM.
In the same order, the values of `CN(C(=O)C1CCN(C(=O)CO)CC1)[C@@H](c1ccc(N2CCCc3c2cnc2cc(Cl)nn32)cc1)C(F)(F)F` [CPD0073091, N-[(1S)-1-(4-{4-chloro-2,3,7,10-tetraazatricyclo[7.4.0.0^2,6]trideca-1(9),3,5,7-tetraen-10-yl}phenyl)-2,2,2-trifluoroethyl]-1-(2-hydroxyacetyl)-N-methylpiperidine-4-carboxamide] are 59 nM and 101 nM.
On to `CN1C(=O)OC[C@@H]1C(=O)N(C)[C@@H](c1ccc(N2CCCc3c2cnc2cc(Cl)nn32)cc1)C(F)(F)F` (relative stereo) [CPD0073570, (4rel-R)-N-[(1S)-1-(4-{4-chloro-2,3,7,10-tetraazatricyclo[7.4.0.0^2,6]trideca-1(9),3,5,7-tetraen-10-yl}phenyl)-2,2,2-trifluoroethyl]-N,3-dimethyl-2-oxo-1,3-oxazolidine-4-carboxamide], for which the IC50 in test [1] is 62 nM; in test [2] it was 216 nM.
On to `Cc1cn2ncc(Nc3ccc([C@H](N(C)C(=O)C4CCS(=O)(=O)CC4)C(F)(F)F)cc3)cc2n1` [CPD0018617, N-methyl-1,1-dioxo-N-[(1S)-2,2,2-trifluoro-1-[4-({2-methylimidazo[1,2-b]pyridazin-7-yl}amino)phenyl]ethyl]-1λ^6-thiane-4-carboxamide], for which the IC50 in test [1] came to 598 nM; in test [2], 386 nM.
Take `CN(C(=O)C1CCS(=O)(=O)CC1)[C@@H](c1ccc(N2CCCc3c2cnc2cc(Cl)nn32)cc1)C(F)(F)F` [CPD0019184, N-[(1S)-1-(4-{4-chloro-2,3,7,10-tetraazatricyclo[7.4.0.0^2,6]trideca-1(9),3,5,7-tetraen-10-yl}phenyl)-2,2,2-trifluoroethyl]-N-methyl-1,1-dioxo-1λ^6-thiane-4-carboxamide]: the IC50 in test [1] came out at 59 nM; in test [2], 68 nM.
The like results for `CNCC(=O)N1CC[C@@H](C(=O)N(C)[C@@H](c2ccc(N3CCCc4c3cnc3cc(Cl)nn43)cc2)C(F)(F)F)C1` (relative stereo) [CPD0075881, (3 rel-S)—N-[(1S)-1-[4-(4-chloro-2,3,7,10-tetrazatricyclo[7.4.0.0^2,6]trideca-1(9),3,5,7-tetraen-10-yl)phenyl]-2,2,2-trifluoro-ethyl]-N-methyl-1-[2-(methylamino)acetyl]pyrrolidine-3-carboxamide hydrochloride] were, in that order, 68 nM and 210 nM.
Consider `COc1ccc2ncc(N(C)c3ccc([C@H](N(C)C(=O)C4CCS(=O)(=O)CC4)C(F)(F)F)cc3)cc2n1` [CPD0021585, N-methyl-1,1-dioxo-N-[(1S)-2,2,2-trifluoro-1-{4-[(6-methoxy-1,5-naphthyridin-3-yl)(methyl)amino]phenyl}ethyl]-1λ^6-thiane-4-carboxamide], for which the IC50 was determined as 863 nM in test [1] and 1680 nM in test [2].
For `COCC1CCN(c2ccc([C@H](N(C)C(=O)C3CCS(=O)(=O)CC3)C(F)(F)F)cc2)c2cnc3cc(Cl)nn3c21` (stereo partly drawn) [CPD0072775], the figures for the IC50 in test [1] and in test [2] were 94 nM and 143 nM, respectively.
For `CN(C(=O)[C@H]1CC[S@@+]([O-])CC1)[C@@H](c1ccc(N2CCCc3c2cnc2cc(Cl)nn32)cc1)C(F)(F)F` (relative stereo) [CPD0022136, (1rel-s,4rel-s)-N-[(1S)-1-(4-{4-chloro-2,3,7,10-tetraazatricyclo[7.4.0.0^2,6]trideca-1(9),3,5,7-tetraen-10-yl}phenyl)-2,2,2-trifluoroethyl]-N-methyl-1-oxo-1λ^4-thiane-4-carboxamide], the figures for the IC50 in test [1] and in test [2] were 45 nM and 106 nM, respectively.
`CSc1cc2ncc3c(n2n1)CCCN3c1ccc([C@H](N(C)C(=O)C2CCS(=O)(=O)CC2)C(F)(F)F)cc1` [CPD0021815, N-methyl-1,1-dioxo-N-[(1S)-2,2,2-trifluoro-1-{4-[4-(methylsulfanyl)-2,3,7,10-tetraazatricyclo[7.4.0.0^2,6]trideca-1(9),3,5,7-tetraen-10-yl]phenyl}ethyl]-1λ^6-thiane-4-carboxamide]: the IC50 in test [1] was determined as 332 nM; in test [2], 228 nM.
On to `CN(C(=O)CC1CCS(=O)(=O)CC1)[C@@H](c1ccc(N2CCCc3c2cnc2cc(Cl)nn32)cc1)C(F)(F)F` [CPD0073088], for which the values for the IC50 in test [1] and in test [2] were 91 nM and 142 nM, respectively.
For `COCC(=O)N1CC[C@@H](C(=O)N(C)[C@@H](c2ccc(N3CCCc4c3cnc3cc(Cl)nn43)cc2)C(F)(F)F)C1` (relative stereo) [CPD0075875, (3rel-S)-N-[(1S)-1-[4-(4-chloro-2,3,7,10-tetrazatricyclo[7.4.0.0^2,6]trideca-1(9),3,5,7-tetraen-10-yl)phenyl]-2,2,2-trifluoro-ethyl]-1-(2-methoxyacetyl)-N-methyl-pyrrolidine-3-carboxamide], the IC50 in test [1] was 85 nM; in test [2] it was 116 nM.
For `CC1CCN(c2ccc([C@H](N(C)C(=O)C3CCS(=O)(=O)CC3)C(F)(F)F)cn2)c2cnc3cc(Cl)nn3c21` (stereo partly drawn) [CPD0021812, N-[(1S)-1-(6-{4-chloro-13-methyl-2,3,7,10-tetraazatricyclo[7.4.0.0^2,6]trideca-1(9),3,5,7-tetraen-10-yl}pyridin-3-yl)-2,2,2-trifluoroethyl]-N-methyl-1,1-dioxo-1λ^6-thiane-4-carboxamide], the IC50 in test [1] is 108 nM; in test [2], 213 nM.
For the molecule `COc1cc2ncc3c(n2n1)CCCN3c1ccc([C@H](N(C)C(=O)C2CCS(=O)(=O)CC2)C(F)(F)F)cc1` [CPD0019576, N-methyl-1,1-dioxo-N-[(1S)-2,2,2-trifluoro-1-(4-{4-methoxy-2,3,7,10-tetraazatricyclo[7.4.0.0^2,6]trideca-1(9),3,5,7-tetraen-10-yl}phenyl)ethyl]-1λ^6-thiane-4-carboxamide], the IC50 is 313 nM in test [1] and 1250 nM in test [2].
On to `CN(C(=O)CC#N)[C@@H](c1ccc(N2CCCc3c2cnc2cc(Cl)nn32)cc1)C(F)(F)F` [CPD0019342, N-[(1S)-1-(4-{4-chloro-2,3,7,10-tetraazatricyclo[7.4.0.0^2,6]trideca-1(9),3,5,7-tetraen-10-yl}phenyl)-2,2,2-trifluoroethyl]-2-cyano-N-methylacetamide], for which the IC50 worked out at 170 nM in test [1] and 96 nM in test [2].
As for `CN(C(=O)C1CCS(=O)(=O)CC1)[C@@H](c1ccc(N2CC(C)(C)c3c2cnc2cc(Cl)nn32)cc1)C(F)(F)F` [CPD0019494, N-[(1S)-1-(4-{11-chloro-3,3-dimethyl-1,5,8,12-tetraazatricyclo[7.3.0.0^2,6]dodeca-2(6),7,9,11-tetraen-5-yl}phenyl)-2,2,2-trifluoroethyl]-N-methyl-1,1-dioxo-1λ^6-thiane-4-carboxamide], the results for the half-maximal inhibitory concentration (IC50) in test [1] and in test [2] were 25 nM and 59 nM, respectively.
In the case of `CN(C(=O)Cc1ccccc1O)[C@@H](c1ccc(N2CCCc3c2cnc2cc(Cl)nn32)cc1)C(F)(F)F` [CPD0019350, N-[(1S)-1-(4-{4-chloro-2,3,7,10-tetraazatricyclo[7.4.0.0^2,6]trideca-1(9),3,5,7-tetraen-10-yl}phenyl)-2,2,2-trifluoroethyl]-2-(2-hydroxyphenyl)-N-methylacetamide], the IC50 in test [1] worked out at 70 nM; in test [2] it was 103 nM.
`CN1CCN(CC(=O)N(C)[C@@H](c2ccc(N3CCCc4c3cnc3cc(Cl)nn43)cc2)C(F)(F)F)CC1` [CPD0021746, N-[(1S)-1-(4-{4-chloro-2,3,7,10-tetraazatricyclo[7.4.0.0^2,6]trideca-1(9),3,5,7-tetraen-10-yl}phenyl)-2,2,2-trifluoroethyl]-N-methyl-2-(4-methylpiperazin-1-yl)acetamide]: the IC50 in test [1] turned out to be 522 nM; in test [2] it was 466 nM.
For `CN(C(=O)CO)[C@@H](c1ccc(N2CCCc3c2cnc2cc(Cl)nn32)cc1)C(F)(F)F` [CPD0019341, N-[(1S)-1-[4-(4-chloro-2,3,7,10-tetrazatricyclo[7.4.0.0^2,6]trideca-1(9),3,5,7-tetraen-10-yl)phenyl]-2,2,2-trifluoro-ethyl]-2-hydroxy-N-methyl-acetamide], the IC50 in test [1] amounted to 200 nM; in test [2], 104 nM.
Consider `C[C@@H]1CCN(c2ccc([C@H](N(C)C(=O)[C@H]3CC[S@](=N)(=O)CC3)C(F)(F)F)cc2)c2cnc3cc(F)nn3c21` (relative stereo) [CPD0074555, (1rel s, 4rel s)1-imino-N-methyl-1-oxo-N-[(1S)-2,2,2-trifluoro-1-[4-[(13 rel R)-4-fluoro-13-methyl-2,3,7,10-tetrazatricyclo[7.4.0.0^2,6]trideca-1(9),3,5,7-tetraen-10-yl]phenyl]ethyl]thiane-4-carboxamide], for which the IC50 in test [1] stood at 35 nM; in test [2], 101 nM.
As to `CN(C(=O)[C@H]1CC[S@+]([O-])CC1)[C@@H](c1ccc(N2CCC(C)(C)c3c2cnc2cc(Cl)nn32)cc1)C(F)(F)F` (relative stereo) [CPD0072777, (1rel-r,4rel-r)-N-[(1S)-1-(4-{4-chloro-13,13-dimethyl-2,3,7,10-tetraazatricyclo[7.4.0.0^2,6]trideca-1(9),3,5,7-tetraen-10-yl}phenyl)-2,2,2-trifluoroethyl]-N-methyl-1-oxo-1λ^4-thiane-4-carboxamide], the results for the IC50 in test [1] and in test [2] were 62 nM and 36 nM, respectively.
